Measurements published in patent EP0462621A2, “Use of particular compounds for manufacture of pharmaceutical formulations for treatment against various parasites, mycoplasmas, other indications and other infections” (Prendergast, Patrick Thomas, priority 1990, dated 1991).

How the values were obtained:
[1] = test system: T.b. brucei, T.b. gambiense and T.b. rhodesiense; assay: African trypanosomiasis mouse model, in-vivo
Protocol: Primary screening for new trypanocides has made extensive use of rodent systems, in which host survival time is a simple indicator of drug activity. In-vitro screens have used a variety of trypomastigote types (see Table 3, below). […] Most early in-vitro screens employed a short test in which bloodstream trypomastigotes were isolated from an infected rodent and maintained for up to 24 h in a simple drug-containing media. Two significant modifications of this technique include maintaining isolated bloodstream trypomastigotes in drug-containing media for 3-4 hours at 37° C in micro-titre plates and their subsequent viability assessed by the uptake of radiolabelled precursors or motility and infectivity to mice.
(§1) In-vitro and in-vivo models were used to test activities of a selection of many compounds. Those activities are summarized in Tables 1-3, showing variation between systems and species. Activities measured in the MP mo and HM mo models have shown the best correlation with results obtained in hamster and mouse models.

HIV = HIV production from H9 cells persistently infected with HIV, RT activity; type: cell-based
Protocol: To examine the effect of IPA on the production of HIV-1 in H9 cells persistently infected with HIV-1, 5x10^6 HIV-1-infected H9 cells were incubated in the absence or presence of IPA. Every 4-5 days, two thirds of the total cells were removed and medium was changed. New medium with or without drug was added to bring up to the original volume. At days indicated, culture supernatant was withdrawn and tested for the production of HIV-1 by the RT activity. A 20,000 cpm or more TCA insoluble radioactivity per millilitre of supernatant was considered positive in the RT assay. Results

B lymphocytes = assay: Lymphocyte blastogenesis assay, B lymphocytes (PWM); type: cell-based, human
Protocol: T and B lymphocytes from normal human donors were incubated for 30 minutes at various dose levels of the compounds indicated. The lymphocytes were added in triplicate wells in gentamicin and phytohemagglutinin (PHA) (a T cell mitogen), pokeweed mitogen (PWM) (a B cell mitogen) and allogeneic mononuclear cells (mixed leukocyte cultures; MLC) or media containing the above additives. The lymphocyte blastogenesis assay is described in detail below.
The data are represented as the mean of the three replicates. The results are presented in Charts la(e) (i) and la(e) (ii) (Figs. 1 and 2). […] A reduction of both T lymphocytes' abilities to proliferate was obtained when 100 u.M or greater concentrations of IPA was added to the cell cultures. Proliferative activity of T lymphocytes by 25% at the 30 u.M concentration of IPA in the experiment.
• 1. Mononuclear cells are separated from whole blood by differential centrifugation using a synthetic separation medium, or are thawed from a cryopreserved preparation. The cells are washed and resuspended in media (RPMI - 1640, L-Glutamine 2mM, Herpes Buffer 25mM, Gentamicin 50 ug/ml, Human AB Serum-heat inactivated (56°, 30°) 20%). • 2. A viable cell count is determined. • 3. Cell concentration is adjusted to 2 x 10^6 /ml in media. • 4. The cell suspension is added to wells of a 96-well flat bottom plate in 0.1 ml aliquots (2 x 10^5 cells). • 5. The selected mitogens and/or antigens (in media without serum) are added to the cells in the wells also in 0.1 ml aliquots. • 6. The cultures are incubated for 3-7 days (depending upon the mitogen or antigen) at 37° C in a humidified 5% C02 atmosphere. • 7. Six to eight hours before termination of cultures 0.05 ml (1 µCi) of ^3HTdR sp. act 6.7 Ci/mM (20 µCi/ml stock) is added to each well. • 8. At termination of cultures the cells are harvested onto strips of scintillation-grade fibreglass paper using a multiple sample harvester. • 9. Perforated disks from the fibreglass paper of the harvested cultures are placed each into scintillation vials to which is then added 5 ml of toluene based scintillation cocktail. • 10. The vials are counted in a liquid scintillation counter for one minute where the amount of incorporated ^3HTdR is determined.
net CPM = xCPM of mitogen/antigen cultures - xCPM of media cultures.

[2] = test system: Human peripheral blood mononuclear cells; assay: Experiment 1a(d): human cell viability, trypan blue counts; type: cell-based; conditions: 18 hours; for Cells/ml (x10^5) / Viability (%): 37° C
Protocol: Human peripheral blood mononuclear cells were incubated for 18 hours in the presence of various concentrations of IPA and azidothymidine (AZT) at 37° C after which time cell viability was determined by visual counts of cells in the presence of trypan blue. Two controls were run, one with each series of experiments.

[3] = Solubility of IPA in water; type: physicochemical
L donovani = assay: Leishmania promastigote (PRO) in-vitro screen; type: cell-based; conditions: Ld.
From the text: (§2) Following initial infection, the amastigote is the only form present in the mammalian host, surviving and dividing in various macrophage populations. Differences between the promastigote and amastigote in form and habitat are not matched by known biochemical dissimilarities. However, the drug susceptibility of the cultured promastigote, used in many early chemotherapy screens, contrasts markedly with that of the amastigote (see Table 1, below), most importantly to the clinically used pentavalent antimonials - sodium stibogluconate (Pentostam) and meglumine antimoniate (Glucantime).
(§3) Amastigotes of Leishmania can be cultivated in a wide range of mammalian cells, some of which may be used in in-vitro screens. These include (1) a Sticker dog sarcoma (fibroblast) cell line, (2) transformed rodent macrophage cell lines, (3) primary isolated mouse peritoneal macrophages (MP mo), and (4) human monocyte-derived macrophages (HM mo). The methods are similar for all models. Amastigote or promastigote infected cells are maintained in a medium containing the drug for 4-7 days, at 37 C for L. donovani and 33-35 C for L. major and L. mexicana. Drug activity is then assessed by counting (I) the number of infected host cells and/or (II) the number of amastigotes/100 host cells.
as §1

L major/L mexicana = assay: Leishmania promastigote (PRO) in-vitro screen; type: cell-based; conditions: Lm.
From the text: as §2, §3, §1

CC(C)=CCNc1ncnc2c1ncn2[C@@H]1O[C@H](CO)[C@@H](O)[C@H]1O [IPA, N^6-(Δ^2-isopentenyl) adenosine]
activity, mouse model [1]: + + | HIV PRODUCTION RT ACTIVITY cpm/ml (HIV; DRUG CONCENTRATION 3.75 (unit not given), 15 DAYS p.d., without drug 3 x 10^5): 2.3 x 10^5 cpm/ml | HIV PRODUCTION RT ACTIVITY cpm/ml (HIV; DRUG CONCENTRATION 3.75 (unit not given), 25 DAYS p.d., without drug 1.1 x 10^6): 1.2 x 10^5 cpm/ml | HIV PRODUCTION RT ACTIVITY cpm/ml (HIV; DRUG CONCENTRATION 7.5 (unit not given), 15 DAYS p.d., without drug 3 x 10^5): 2.9 x 10^5 cpm/ml | HIV PRODUCTION RT ACTIVITY cpm/ml (HIV; DRUG CONCENTRATION 7.5 (unit not given), 25 DAYS p.d., without drug 1.1 x 10^6): 3.2 x 10^5 cpm/ml | HIV PRODUCTION RT ACTIVITY cpm/ml (HIV; DRUG CONCENTRATION 15 (unit not given), 15 DAYS p.d., without drug 3 x 10^5): 2.3 x 10^5 cpm/ml | HIV PRODUCTION RT ACTIVITY cpm/ml (HIV; DRUG CONCENTRATION 15 (unit not given), 25 DAYS p.d., without drug 1.1 x 10^6): 3.6 x 10^5 cpm/ml | HIV PRODUCTION RT ACTIVITY cpm/ml (HIV; DRUG CONCENTRATION 30 (unit not given), 15 DAYS p.d., without drug 3 x 10^5): 2.9 x 10^5 cpm/ml | HIV PRODUCTION RT ACTIVITY cpm/ml (HIV; DRUG CONCENTRATION 30 (unit not given), 25 DAYS p.d., without drug 1.1 x 10^6): 2.5 x 10^5 cpm/ml | B lymphocyte responsiveness (B lymphocytes; 10 µM, third experiment): Increased | B lymphocyte function (B lymphocytes; 1000 µM down to 10 µM, third experiment (Figs. 7 and 8)): reductions | B lymphocyte proliferation (B lymphocytes; 0.1 - 10 µM, first experiment): No effect or an increase | reduction in B lymphocyte function (B lymphocytes; 30 -35 u.M, third experiment): ~25% | reduction of B lymphocyte proliferation (B lymphocytes; between the 30 -10 u.M concentration levels, second experiment, approximate): 30 -50% | Cells/ml (x10^5) ([2]; 0.1 µM): 2.4 Cells/ml (x10^5) | Viability (%) ([2]; 0.1 µM): 86% | Cells/ml (x10^5) ([2]; 0.3 µM): 1.8 Cells/ml (x10^5) | Viability (%) ([2]; 0.3 µM): 82% | Cells/ml (x10^5) ([2]; 1 µM): 2.8 Cells/ml (x10^5) | Viability (%) ([2]; 1 µM): 100% | Cells/ml (x10^5) ([2]; 3 µM): 2.6 Cells/ml (x10^5) | Viability (%) ([2]; 3 µM): 87% | Cells/ml (x10^5) ([2]; 10 µM): 3.0 Cells/ml (x10^5) | Viability (%) ([2]; 10 µM): 94% | Cells/ml (x10^5) ([2]; 30 µM): 3.8 Cells/ml (x10^5) | Viability (%) ([2]; 30 µM): 95% | Cells/ml (x10^5) ([2]; 100 µM): 3.8 Cells/ml (x10^5) | Viability (%) ([2]; 100 µM): 90% | Cells/ml (x10^5) ([2]; 300 µM): 2.2 Cells/ml (x10^5) | Viability (%) ([2]; 300 µM): 79% | Cells/ml (x10^5) ([2]; 1000 µM): 2.8 Cells/ml (x10^5) | Viability (%) ([2]; 1000 µM): 82% | Cells/ml (x10^5) ([2]; 3000 µM): 2.2 Cells/ml (x10^5) | Viability (%) ([2]; 3000 µM): 92% | cell viability ([2]; 6mM): slight reduction | Cells/ml (x10^5) ([2]; 6000 µM): 2.4 Cells/ml (x10^5) | Viability (%) ([2]; 6000 µM): 75% | toxic effect (cell viability) ([2]; concentrations of from 0.1 µM to 3 u.M): no toxic effect | solubility in water [3]: does not readily dissolve in water | Activity, PRO (L donovani): + + | Activity, PRO (L major/L mexicana): +
